According to patent US20250011295A1, “USE OF 3-ARYLPHTHALIDES AND DERIVATIVES THEREOF AS ANTI-INFLAMMATORY AGENTS” (UNIVERSIDAD DE CÁDIZ, priority 2021, published 2025):

Tests used:
Format in all cases: cell-based
[1] = system: renal tubular cell lines, MCT; test: Nitrite production inhibition (Greiss colorimetric technique) in cytokine-stimulated MCT cells; settings: for % of reduction in nitrite production: cytokine cocktail 10 ng·mL^−1, compound 10 μM; for Nitrite production, LPS or cytokines + Compound (10 μM): cytokine cocktail (TNFα, IL1β, IFNγ, TFGβ) 10 ng·mL^−1, compound 10 μM, baseline = 1.00
Method: (§1) Anti-inflammatory activity was measured on Bv.2 microglial cell line (innate immune system of the central nervous system), macrophages, Raw 264.7 cell line (peripheral immune system), renal tubular cell lines, MCT (renal tubule epithelials) and pancreatic beta cells, INS-1 (insulin-producing cells targeted in the process leading to diabetes mellitus). […] The activation of the inflammatory process induces the secretion of nitrites (NO2) into the medium, so the induction and modulation of the inflammatory response by 3-(4,5-dihydroxy-2-(2-ethylthio)ethylphenyl)phthalide and 3-(2,4-dihydroxyphenyl)phthalide can be determined by means of the Greiss colorimetric technique.
(§2) Tables 1 and 2 show the results of the nitrite production inhibitory activity caused by compounds II and III (10 μM), respectively, on LPS-stimulated Bv2 and Raw264.7 cell lines and on cytokine-stimulated MCT and INS-1 cell lines.

[2] = system: Bv.2 microglial cell line; test: Nitrite production inhibition (Greiss colorimetric technique) in LPS-stimulated Bv.2 cells; settings: LPS 2 μg·mL^−1, compound 10 μM; for Nitrite production, LPS or cytokines + Compound (10 μM): baseline = 1.00
Method: as §1, §2

[3] = system: pancreatic beta cells, INS-1; test: Nitrite production inhibition (Greiss colorimetric technique) in cytokine-stimulated INS-1 cells; settings: for % of reduction in nitrite production: cytokine cocktail 10 ng·mL^−1, compound 10 μM; for Nitrite production, LPS or cytokines + Compound (10 μM): cytokine cocktail (TNFα, IL1β, IFNγ, TFGβ) 10 ng·mL^−1, compound 10 μM, baseline = 1
Method: as §1, §2

[4] = system: Bv.2, Raw 264.7, MCT and INS-1 cell lines; test: Cytotoxic effect in treated cell lines; settings: any of the treated cell lines
[5] = system: macrophages, Raw 264.7 cell line; test: Nitrite production inhibition (Greiss colorimetric technique) in LPS-stimulated Raw 264.7 cells; settings: LPS 2 μg·mL^−1, compound 10 μM; for Nitrite production, LPS or cytokines + Compound (10 μM): baseline = 1.00
Method: as §1, §2

Nos2 [6] = test: Nos2 expression inhibition (qPCR) in retinal explants from BB rat; settings: retinal explant, 20 μM for 24 h
Method: (§3) Anti-inflammatory activity was determined using organotypic cultures or retinal and kidney explants from a murine model which develops type 1 or autoimmune diabetes mellitus spontaneously, i.e., BioBreeding (BB) rat. This animal model of type 1 diabetes mellitus reproduces disease progression in a manner similar to that occurring in patients. Tissues, retina, and kidney are extracted, maintaining cytoarchitecture and tissue connections of each of the organs, from BB rats that are 7 weeks old, which is the time before the presence of constant hyperglycemia, which appears around weeks 9-11 of life. A prediabetic model with active inflammatory parameters that resemble those occurring during the progression of type 1 diabetes mellitus in patients is thereby obtained. The cultured explants were treated with 3-(2,4-dihydroxyphenyl)phthalide (compound III) at a dose of 20 μM for 24 h.
(§4) Activation of the inflammatory process induces nitric oxide synthase, Nos2, gene expression, with messenger RNA quantification being determined by means of the quantitative PCR technique (qPCR), and can show inflammatory response modulation in retinal and kidney explants from an animal model with type 1 or autoimmune diabetes mellitus.

Nos2 [7] = test: Nos2 expression inhibition (qPCR) in kidney explants from BB rat; settings: kidney explant, 20 μM for 24 h
Method: as §3, §4

[8] = 7 weeks old BB rat, untreated BB rat = 1.00

SMILES: CCSCCc1cc(O)c(O)cc1C1OC(=O)c2ccccc21 (stereo not shown) [Compound II, 3-(4,5-dihydroxy-2-(2-ethylthio)ethylphenyl)phthalide]
- % of reduction in nitrite production [1]: 77.91%
- Nitrite production, LPS or cytokines + Compound (10 μM) [1]: 1.788 ± 0.29
- % of reduction in nitrite production [2]: 48.31%
- Nitrite production, LPS or cytokines + Compound (10 μM) [2]: 1.98 ± 0.203
- % of reduction in nitrite production [3]: 18.82%
- Nitrite production, LPS or cytokines + Compound (10 μM) [3]: 3.644 ± 0.004
- cytotoxic effect ([4]; increasing doses for 24 h until the maximum concentration of 25 μM): no cytotoxic effect was detected
- % of reduction in nitrite production [5]: 79.88%
- Nitrite production, LPS or cytokines + Compound (10 μM) [5]: 1.38 ± 0.43

SMILES: O=C1OC(c2ccc(O)cc2O)c2ccccc21 (stereo not shown) [Compound III, 3-(2,4-dihydroxyphenyl)phthalide]
- % of reduction in nitrite production [1]: 83.14%
- Nitrite production, LPS or cytokines + Compound (10 μM) [1]: 1.53 ± 0.06
- % of reduction in nitrite production [2]: 62.92%
- Nitrite production, LPS or cytokines + Compound (10 μM) [2]: 3.47 ± 0.27
- Nos2 expression, BB rat + 3-(2,4-dihydroxyphenyl)phthalide (20 μM) (Nos2 [6]; [8]): 0.482 ± 0.05
- % of reduction of Nos2 expression (Nos2 [6]; BB rat): 51.8%
- % of reduction in nitrite production [3]: 65.32%
- Nitrite production, LPS or cytokines + Compound (10 μM) [3]: 1.48 ± 0.02
- cytotoxic effect ([4]; increasing doses for 24 h until the maximum concentration of 50 μM): no cytotoxic effect was detected
- % of reduction in nitrite production [5]: 33.38%
- Nitrite production, LPS or cytokines + Compound (10 μM) [5]: 3.60 ± 0.42
- Nos2 expression, BB rat + 3-(2,4-dihydroxyphenyl)phthalide (20 μM) (Nos2 [7]; [8]): 0.348 ± 0.05
- % of reduction of Nos2 expression (Nos2 [7]; BB rat): 65.2%
